According to patent US20100003250A1, “(2-ARYL-7H-PYRROLO[2,3-D]PYRIMIDIN-4-YL)MORPHOLINE COMPOUNDS, THEIR USE AS MTOR KINASE AND PI3 KINASE INHIBITORS, AND THEIR SYNTHESES” (Wyeth, priority 2008, published 2010):

Key:
Format in all cases: biochemical
mTOR Kinase (FLAG-TOR) = molecular target: T1, mTOR Kinase (FLAG-TOR) (Homo sapiens, UniProt P42345); experiment: mTOR kinase assay, purified enzyme, DELFIA format; details: 100 μM ATP, 1.25 μM His6-S6K; read-out: mTOR Kinase Median IC50
T1 construct: FLAG

PI3Kα = PI3Kα (Homo sapiens, UniProt P42336); experiment: PI3K-alpha fluorescence polarization assay; details: 20 μM PIP2, 25 μM ATP; read-out: PI3Kα Median IC50
PI3Kγ = PI3Kγ (Homo sapiens, UniProt P48736); experiment: PI3K-gamma fluorescence polarization assay; details: 20 μM PIP2, 25 μM ATP; read-out: PI3Kγ Median IC50
Method: PI3K-alpha and PI3K-gamma Fluorescence Polarization Assay Protocols
The reaction buffer was 20 mM HEPES pH 7.5, 2 mM MgCl2, 0.05% CHAPS, and 0.01% βME (added fresh). The substrate solution was 40 μM PIP2 (diC8, Echelon, Salt Lake City Utah cat # P-4508, 1 mM in water) and 50 μM ATP in the reaction buffer. Nunc 384-well black polypropylene fluorescent plates were used for PI3K assays. The assay is run by putting 9.5 μl of freshly diluted enzyme in the reaction buffer per well, adding 0.5 μl of diluted drug or DMSO, and mixing. Then 10 μl of the substrate solution is added to each well to start the reaction. A final concentration of 20 μM PIP2 and 25 μM ATP in the reaction was used. Reactions were allowed to proceed for 30-60 minutes at room temperature. After 30-60 minutes, 20 μl of a solution of 10 nM TAMRA detector (Red detector probe-Echelon) and 2.5 μM of GST-murineGRP (1.5 mg/ml in 17% glycerol) was added per well to stop the reaction. The resulting solution was mixed well and allowed to stand for 90-110 minutes before reading plate. Assay Plates were read on Perkin-Elmer Envision plate readers with appropriate filters for Tamra [BODIPY-TMRI(1,3,4,5)P4]. Data obtained were used to calculate enzymatic activity and enzyme inhibition by inhibitor compounds. It is important to keep Red probe solutions dark. This procedure is adapted from Echelon Biosciences Inc procedure for their PI3-Kinase fluorescence polarization activity Assay kit Product number K-1100.

Chain of PI3Kγ (P48736 whole entry, species assumed): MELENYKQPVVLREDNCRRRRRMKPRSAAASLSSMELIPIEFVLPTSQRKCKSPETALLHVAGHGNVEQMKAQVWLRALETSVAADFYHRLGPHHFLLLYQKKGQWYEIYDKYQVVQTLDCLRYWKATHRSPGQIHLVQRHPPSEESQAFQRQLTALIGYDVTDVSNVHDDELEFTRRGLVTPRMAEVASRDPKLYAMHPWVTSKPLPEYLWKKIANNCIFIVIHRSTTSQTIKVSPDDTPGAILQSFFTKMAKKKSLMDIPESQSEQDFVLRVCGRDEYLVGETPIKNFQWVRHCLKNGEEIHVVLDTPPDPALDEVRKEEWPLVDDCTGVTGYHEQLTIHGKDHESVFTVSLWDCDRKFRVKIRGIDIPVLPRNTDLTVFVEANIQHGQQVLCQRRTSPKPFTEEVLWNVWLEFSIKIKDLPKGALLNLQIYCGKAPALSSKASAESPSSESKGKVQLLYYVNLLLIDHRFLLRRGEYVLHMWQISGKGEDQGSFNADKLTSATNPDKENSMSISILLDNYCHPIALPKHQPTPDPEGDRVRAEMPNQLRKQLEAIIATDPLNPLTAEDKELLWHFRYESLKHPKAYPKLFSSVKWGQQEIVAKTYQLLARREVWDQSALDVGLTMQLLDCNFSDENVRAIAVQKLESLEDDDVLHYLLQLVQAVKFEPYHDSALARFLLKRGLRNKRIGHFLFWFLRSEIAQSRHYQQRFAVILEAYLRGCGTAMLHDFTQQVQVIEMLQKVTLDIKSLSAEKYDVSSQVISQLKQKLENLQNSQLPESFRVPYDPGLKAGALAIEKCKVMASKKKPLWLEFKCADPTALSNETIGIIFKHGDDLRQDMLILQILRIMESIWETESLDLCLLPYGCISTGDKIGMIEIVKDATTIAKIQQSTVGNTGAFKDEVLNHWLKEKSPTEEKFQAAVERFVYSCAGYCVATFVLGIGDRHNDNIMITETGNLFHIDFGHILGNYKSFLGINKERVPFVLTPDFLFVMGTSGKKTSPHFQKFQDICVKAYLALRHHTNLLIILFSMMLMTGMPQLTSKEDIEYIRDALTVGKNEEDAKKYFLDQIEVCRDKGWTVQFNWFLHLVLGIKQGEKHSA
Chain of PI3Kα (P42336 whole entry, species assumed): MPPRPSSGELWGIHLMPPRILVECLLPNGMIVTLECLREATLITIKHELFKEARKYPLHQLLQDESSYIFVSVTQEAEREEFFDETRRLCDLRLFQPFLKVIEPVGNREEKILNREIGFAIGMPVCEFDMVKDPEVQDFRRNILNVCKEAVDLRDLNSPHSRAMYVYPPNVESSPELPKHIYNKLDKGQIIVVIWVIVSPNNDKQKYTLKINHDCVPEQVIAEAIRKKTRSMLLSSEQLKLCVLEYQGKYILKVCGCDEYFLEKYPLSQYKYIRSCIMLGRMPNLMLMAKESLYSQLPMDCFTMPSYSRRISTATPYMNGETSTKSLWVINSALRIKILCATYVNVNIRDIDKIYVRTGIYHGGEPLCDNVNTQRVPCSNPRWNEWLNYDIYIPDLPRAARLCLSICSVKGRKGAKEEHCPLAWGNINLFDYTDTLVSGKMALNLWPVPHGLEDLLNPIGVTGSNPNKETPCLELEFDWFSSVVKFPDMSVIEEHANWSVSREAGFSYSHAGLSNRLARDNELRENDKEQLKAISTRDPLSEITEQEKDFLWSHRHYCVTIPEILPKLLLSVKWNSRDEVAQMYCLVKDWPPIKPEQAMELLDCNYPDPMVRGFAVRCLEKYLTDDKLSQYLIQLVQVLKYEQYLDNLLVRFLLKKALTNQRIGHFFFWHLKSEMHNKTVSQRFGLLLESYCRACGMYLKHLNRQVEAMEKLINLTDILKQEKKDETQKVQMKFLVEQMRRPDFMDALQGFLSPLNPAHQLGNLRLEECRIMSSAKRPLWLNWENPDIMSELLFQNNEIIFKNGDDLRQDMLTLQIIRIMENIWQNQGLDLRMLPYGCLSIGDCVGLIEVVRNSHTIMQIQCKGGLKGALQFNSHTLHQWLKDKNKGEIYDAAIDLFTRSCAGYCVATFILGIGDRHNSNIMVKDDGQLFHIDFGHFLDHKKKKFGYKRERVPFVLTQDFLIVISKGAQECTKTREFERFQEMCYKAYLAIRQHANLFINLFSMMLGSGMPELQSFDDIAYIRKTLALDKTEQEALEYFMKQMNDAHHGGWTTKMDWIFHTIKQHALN
Chain of PI3Kα (P27986 whole entry partner, species assumed): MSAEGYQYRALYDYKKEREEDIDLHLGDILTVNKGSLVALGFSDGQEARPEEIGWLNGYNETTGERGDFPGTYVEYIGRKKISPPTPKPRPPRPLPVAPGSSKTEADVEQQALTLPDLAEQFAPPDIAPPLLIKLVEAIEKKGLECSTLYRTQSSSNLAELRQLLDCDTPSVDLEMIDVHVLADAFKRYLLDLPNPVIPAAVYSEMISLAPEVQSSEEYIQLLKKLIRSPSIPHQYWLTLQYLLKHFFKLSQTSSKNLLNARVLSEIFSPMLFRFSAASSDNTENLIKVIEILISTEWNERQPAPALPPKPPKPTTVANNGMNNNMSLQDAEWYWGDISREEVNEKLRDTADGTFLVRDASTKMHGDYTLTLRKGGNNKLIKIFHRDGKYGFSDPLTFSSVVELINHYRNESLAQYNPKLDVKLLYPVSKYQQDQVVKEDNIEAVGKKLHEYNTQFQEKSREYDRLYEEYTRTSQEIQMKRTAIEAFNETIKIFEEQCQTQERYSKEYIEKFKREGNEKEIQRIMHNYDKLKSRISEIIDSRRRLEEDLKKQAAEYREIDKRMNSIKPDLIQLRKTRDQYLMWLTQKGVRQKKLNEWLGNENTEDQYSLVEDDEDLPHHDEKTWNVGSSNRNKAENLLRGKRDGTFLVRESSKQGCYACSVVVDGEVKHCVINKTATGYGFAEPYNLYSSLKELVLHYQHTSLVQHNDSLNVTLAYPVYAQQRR

O=C(Nc1ccc(-c2nc(N3CCOCC3)c3ccn(CC(F)(F)F)c3n2)cc1)Nc1cccnc1 [Compound 37, 1-{4-[4-morpholin-4-yl-7-(2,2,2-trifluoroethyl)-7H-pyrrolo[2,3-d]pyrimidin-2-yl]phenyl}-3-pyridin-3-ylurea]
IC50 (mTOR Kinase (FLAG-TOR)): 1.09 nM
IC50 (PI3Kα): 26 nM
IC50 (PI3Kγ): 97 nM

CCN1CCN(C(=O)c2ccc(NC(=O)Nc3ccc(-c4nc(N5CCOCC5)c5ccn(CC)c5n4)cc3)cc2)CC1 [Compound 70, 1-[4-(7-ethyl-4-morpholin-4-yl-7H-pyrrolo[2,3-d]pyrimidin-2-yl)phenyl]-3-{4-[(4-ethylpiperazin-1-yl)carbonyl]phenyl}urea]
IC50 (mTOR Kinase (FLAG-TOR)): 1.5 nM
IC50 (PI3Kα): 2.5 nM
IC50 (PI3Kγ): 21 nM

O=C(Nc1ccncc1)Nc1ccc(-c2nc(N3CCOCC3)c3ccn(CCNCCc4cnc[nH]4)c3n2)cc1 [Compound 30, 1-{4-[7-(2-{[2-(1H-imidazol-5-yl)ethyl]amino}ethyl)-4-morpholin-4-yl-7H-pyrrolo[2,3-d]pyrimidin-2-yl]phenyl}-3-pyridin-4-ylurea]
IC50 (mTOR Kinase (FLAG-TOR)): 10.7 nM
IC50 (PI3Kα): 14 nM
IC50 (PI3Kγ): 245 nM

CC(C)(C)NCCn1ccc2c(N3CCOCC3)nc(-c3ccc(NC(=O)Nc4ccncc4)cc3)nc21 [Compound 31, 1-(4-{7-[2-(tert-butylamino)ethyl]-4-morpholin-4-yl-7H-pyrrolo[2,3-d]pyrimidin-2-yl}phenyl)-3-pyridin-4-ylurea]
IC50 (mTOR Kinase (FLAG-TOR)): 25.5 nM
IC50 (PI3Kα): 86 nM
IC50 (PI3Kγ): 404 nM

CCn1ccc2c(N3CCOCC3)nc(-c3ccc(NC(=O)Nc4ccc(C(=O)N(C)CCN(C)C)cc4)cc3)nc21 [Compound 61, N-[2-(dimethylamino)ethyl]-4-({[4-(7-ethyl-4-morpholin-4-yl-7H-pyrrolo[2,3-d]pyrimidin-2-yl)phenyl]carbamoyl}amino)-N-methylbenzamide]
IC50 (mTOR Kinase (FLAG-TOR)): 0.43 nM
IC50 (PI3Kα): < 1.9 nM
IC50 (PI3Kγ): 20 nM

CCn1ccc2c(N3CCOCC3)nc(-c3ccc(NC(=O)Nc4ccc(C(=O)N5CCOCC5)cc4)cc3)nc21 [Compound 66, 1-[4-(7-ethyl-4-morpholin-4-yl-7H-pyrrolo[2,3-d]pyrimidin-2-yl)phenyl]-3-[4-(morpholin-4-ylcarbonyl)phenyl]urea]
IC50 (mTOR Kinase (FLAG-TOR)): 2.4 nM
IC50 (PI3Kα): 3.5 nM
IC50 (PI3Kγ): 30 nM

CCn1ccc2c(N3CCOCC3)nc(-c3ccc(NC(=O)Nc4ccc(C(=O)O)cc4)cc3)nc21 [Compound 60, 4-({[4-(7-ethyl-4-morpholin-4-yl-7H-pyrrolo[2,3-d]pyrimidin-2-yl)phenyl]carbamoyl}amino)benzoic acid]
IC50 (mTOR Kinase (FLAG-TOR)): 0.86 nM
IC50 (PI3Kα): 14.5 nM
IC50 (PI3Kγ): 120 nM

O=C(Nc1ccc(F)cc1)Nc1ccc(-c2nc(N3CCOCC3)c3ccn(CC(F)(F)F)c3n2)cc1 [Compound 38, 1-(4-fluorophenyl)-3-{4-[4-morpholin-4-yl-7-(2,2,2-trifluoroethyl)-7H-pyrrolo[2,3-d]pyrimidin-2-yl]phenyl}urea]
IC50 (mTOR Kinase (FLAG-TOR)): 3.45 nM
IC50 (PI3Kα): 82 nM
IC50 (PI3Kγ): 1530 nM

CC(C)n1ccc2c(N3CCOCC3)nc(-c3ccc(NC(=O)Nc4ccc(C(=O)NCCN5CCCC5)cc4)cc3)nc21 [Compound 87, 4-({[4-(7-isopropyl-4-morpholin-4-yl-7H-pyrrolo[2,3-d]pyrimidin-2-yl)phenyl]carbamoyl}amino)-N-(2-pyrrolidin-1-ylethyl)benzamide]
IC50 (mTOR Kinase (FLAG-TOR)): 0.55 nM
IC50 (PI3Kα): 5 nM
IC50 (PI3Kγ): 88 nM

CCn1ccc2c(N3CCOCC3)nc(-c3ccc(NC(=O)Nc4ccc(C(=O)N5CCNCC5)cc4)cc3)nc21 [Compound 67, 1-[4-(7-ethyl-4-morpholin-4-yl-7H-pyrrolo[2,3-d]pyrimidin-2-yl)phenyl]-3-[4-(piperazin-1-ylcarbonyl)phenyl]urea]
IC50 (mTOR Kinase (FLAG-TOR)): 0.99 nM
IC50 (PI3Kα): < 1.8 nM
IC50 (PI3Kγ): 8 nM

O=C(Nc1ccc(C(=O)NCCN2CCCCC2)cc1)Nc1ccc(-c2nc(N3CCOCC3)c3ccn(CC(F)(F)F)c3n2)cc1 [Compound 56, 4-[({4-[4-morpholin-4-yl-7-(2,2,2-trifluoroethyl)-7H-pyrrolo[2,3-d]pyrimidin-2-yl]phenyl}carbamoyl)amino]-N-(2-piperidin-1-ylethyl)benzamide]
IC50 (mTOR Kinase (FLAG-TOR)): 0.53 nM
IC50 (PI3Kα): 2.6 nM
IC50 (PI3Kγ): 40 nM

CCn1ccc2c(N3CCOCC3)nc(-c3ccc(NC(=O)Nc4ccc(C(=O)NCCN5CCCCC5)cc4)cc3)nc21 [Compound 68, 4-({[4-(7-ethyl-4-morpholin-4-yl-7H-pyrrolo[2,3-d]pyrimidin-2-yl)phenyl]carbamoyl}amino)-N-(2-piperidin-1-ylethyl)benzamide]
IC50 (mTOR Kinase (FLAG-TOR)): 0.91 nM
IC50 (PI3Kα): 4 nM
IC50 (PI3Kγ): 61 nM

O=C(Nc1ccncc1)Nc1ccc(-c2nc(N3CCOCC3)c3ccn(CC4NC(=O)NC4=O)c3n2)cc1 (stereo not drawn) [Compound 35, 1-(4-{7-[(2,5-dioxoimidazolidin-4-yl)methyl]-4-morpholin-4-yl-7H-pyrrolo[2,3-d]pyrimidin-2-yl}phenyl)-3-pyridin-4-ylurea]
IC50 (mTOR Kinase (FLAG-TOR)): 1.55 nM
IC50 (PI3Kα): 12 nM
IC50 (PI3Kγ): 100 nM

O=C(Nc1cccnc1)Nc1nc2cc(-c3nc(N4CCOCC4)c4ccn(CC(F)(F)F)c4n3)ccc2[nH]1 [Compound 46, 1-{5-[4-morpholin-4-yl-7-(2,2,2-trifluoroethyl)-7H-pyrrolo[2,3-d]pyrimidin-2-yl]-1H-benzimidazol-2-yl}-3-pyridin-3-ylurea]
IC50 (mTOR Kinase (FLAG-TOR)): 3.4 nM
IC50 (PI3Kα): 14 nM
IC50 (PI3Kγ): 104 nM

Cn1ccc2c(N3CCOCC3)nc(-c3ccc(NC(=O)Nc4cccnc4)cc3)nc21 [Compound 44, 1-[4-(7-methyl-4-morpholin-4-yl-7H-pyrrolo[2,3-d]pyrimidin-2-yl)phenyl]-3-pyridin-3-ylurea]
IC50 (mTOR Kinase (FLAG-TOR)): 1.9 nM
IC50 (PI3Kα): 26 nM
IC50 (PI3Kγ): 144 nM

CCn1ccc2c(N3CCOCC3)nc(-c3ccc(NC(=O)Nc4ccc(C(=O)NCCCN(C)C)cc4)cc3)nc21 [Compound 74, N-[3-(dimethylamino)propyl]-4-({[4-(7-ethyl-4-morpholin-4-yl-7H-pyrrolo[2,3-d]pyrimidin-2-yl)phenyl]carbamoyl}amino)benzamide]
IC50 (mTOR Kinase (FLAG-TOR)): 1.2 nM
IC50 (PI3Kα): 1.9 nM
IC50 (PI3Kγ): 32 nM

CCn1ccc2c(N3CCOCC3)nc(-c3ccc(NC(=O)Nc4ccc(C(=O)NCCOC)cc4)cc3)nc21 [Compound 78, 4-({[4-(7-ethyl-4-morpholin-4-yl-7H-pyrrolo[2,3-d]pyrimidin-2-yl)phenyl]carbamoyl}amino)-N-(2-methoxyethyl)benzamide]
IC50 (mTOR Kinase (FLAG-TOR)): 1.15 nM
IC50 (PI3Kα): 9.5 nM
IC50 (PI3Kγ): 118 nM

CNCCn1ccc2c(N3CCOCC3)nc(-c3ccc(NC(=O)Nc4ccncc4)cc3)nc21 [Compound 33, 1-(4-{7-[2-(methylamino)ethyl]-4-morpholin-4-yl-7H-pyrrolo[2,3-d]pyrimidin-2-yl}phenyl)-3-pyridin-4-ylurea]
IC50 (mTOR Kinase (FLAG-TOR)): 5.3 nM
IC50 (PI3Kα): 12 nM
IC50 (PI3Kγ): 100 nM

NC(=O)Nc1cccc(Cn2ccc3c(N4CCOCC4)nc(-c4cccc(CO)c4)nc32)c1 [Compound 19, 1-[3-({2-[3-(hydroxymethyl)phenyl]-4-morpholin-4-yl-7H-pyrrolo[2,3-d]pyrimidin-7-yl}methyl)phenyl]urea]
IC50 (mTOR Kinase (FLAG-TOR)): 435 nM
IC50 (PI3Kα): 99 nM
IC50 (PI3Kγ): 868 nM

CC(C)n1ccc2c(N3CCOCC3)nc(-c3ccc(NC(=O)Nc4ccc(C(=O)N5CCN(C)CC5)cc4)cc3)nc21 [Compound 82, 1-[4-(7-isopropyl-4-morpholin-4-yl-7H-pyrrolo[2,3-d]pyrimidin-2-yl)phenyl]-3-{4-[(4-methylpiperazin-1-yl)carbonyl]phenyl}urea]
IC50 (mTOR Kinase (FLAG-TOR)): 1.5 nM
IC50 (PI3Kα): 3.3 nM
IC50 (PI3Kγ): 38 nM

CCn1ccc2c(N3CCOCC3)nc(-c3ccc(NC(=O)Nc4ccc(C(=O)N5CCC(N6CCCC6)CC5)cc4)cc3)nc21 [Compound 69, 1-[4-(7-ethyl-4-morpholin-4-yl-7H-pyrrolo[2,3-d]pyrimidin-2-yl)phenyl]-3-{4-[(4-pyrrolidin-1-ylpiperidin-1-yl)carbonyl]phenyl}urea]
IC50 (mTOR Kinase (FLAG-TOR)): 0.8 nM
IC50 (PI3Kα): 2.1 nM
IC50 (PI3Kγ): 24 nM

O=C(NCCO)Nc1ccc(-c2nc(N3CCOCC3)c3ccn(CC(F)(F)F)c3n2)cc1 [Compound 42, 1-(2-hydroxyethyl)-3-{4-[4-morpholin-4-yl-7-(2,2,2-trifluoroethyl)-7H-pyrrolo[2,3-d]pyrimidin-2-yl]phenyl}urea]
IC50 (mTOR Kinase (FLAG-TOR)): 0.94 nM
IC50 (PI3Kα): 110 nM
IC50 (PI3Kγ): 390 nM

CN(C)CCCNC(=O)Nc1ccc(-c2nc(N3CCOCC3)c3ccn(CCN(C)C)c3n2)cc1 [Compound 15, 1-(4-{7-[2-(dimethylamino)ethyl]-4-morpholin-4-yl-7H-pyrrolo[2,3-d]pyrimidin-2-yl}phenyl)-3-[3-(dimethylamino)propyl]urea]
IC50 (mTOR Kinase (FLAG-TOR)): 3400 nM
IC50 (PI3Kα): 162 nM
IC50 (PI3Kγ): 4360 nM
